Reference: PubChem BioAssay (NCI)
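Here, GI50 denotes the concentration required for 50% inhibition of growth. TGI marks complete inhibition of growth.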

Assays:
Assay in all cases: inhibition of tumour cell growth, NCI panel, 384-well format
HL-60(TB) leukemia = test system: HL-60(TB) leukemia
SF-539 CNS = test system: SF-539 CNS
MDA-MB-231 breast = test system: MDA-MB-231 breast
SN12C renal = test system: SN12C renal
NCI/ADR-RES ovarian = test system: NCI/ADR-RES ovarian
HCT-15 colon = test system: HCT-15 colon
SNB-75 CNS = test system: SNB-75 CNS
SNB-19 CNS = test system: SNB-19 CNS
CCRF-CEM leukemia = test system: CCRF-CEM leukemia
OVCAR-4 ovarian = test system: OVCAR-4 ovarian
U251 glioblastoma = test system: U251 glioblastoma
SF-295 CNS = test system: SF-295 CNS
786-0 renal = test system: 786-0 renal
T-47D breast = test system: T-47D breast
CAKI-1 renal = test system: CAKI-1 renal
A498 renal = test system: A498 renal
BT-549 breast = test system: BT-549 breast
K-562 leukemia = test system: K-562 leukemia
HOP-62 NSCLC = test system: HOP-62 NSCLC
OVCAR-8 ovarian = test system: OVCAR-8 ovarian
MCF7 breast = test system: MCF7 breast
HOP-92 NSCLC = test system: HOP-92 NSCLC
TK-10 renal = test system: TK-10 renal
ACHN renal = test system: ACHN renal
HCC-2998 colon = test system: HCC-2998 colon
M14 melanoma = test system: M14 melanoma
IGROV1 ovarian = test system: IGROV1 ovarian
COLO 205 colon = test system: COLO 205 colon
NCI-H226 lung = test system: NCI-H226 lung
UACC-257 melanoma = test system: UACC-257 melanoma
UACC-62 melanoma = test system: UACC-62 melanoma
SK-MEL-5 melanoma = test system: SK-MEL-5 melanoma
PC-3 prostate = test system: PC-3 prostate
OVCAR-3 ovarian = test system: OVCAR-3 ovarian
MALME-3M melanoma = test system: MALME-3M melanoma
UO-31 renal = test system: UO-31 renal
RPMI-8226 leukemia = test system: RPMI-8226 leukemia
KM12 colon = test system: KM12 colon
A549 NSCLC = test system: A549 NSCLC
DU-145 prostate = test system: DU-145 prostate
SK-MEL-2 melanoma = test system: SK-MEL-2 melanoma
HCT-116 colon = test system: HCT-116 colon
NCI-H522 lung = test system: NCI-H522 lung
EKVX NSCLC = test system: EKVX NSCLC
OVCAR-5 ovarian = test system: OVCAR-5 ovarian
MDA-MB-435 melanoma = test system: MDA-MB-435 melanoma
RXF 393 renal = test system: RXF 393 renal

**Q.** What does the source list for `FC(F)(F)c1ccc(CNc2ccc(Cc3c[nH]c4ncc(Cl)cc34)cn2)cn1`?
**A.** GI50 (HL-60(TB) leukemia): 6.17 µM; TGI (HL-60(TB) leukemia): 16.3 µM; GI50 (SF-539 CNS): 11.2 µM; TGI (SF-539 CNS): 23.7 µM; GI50 (MDA-MB-231 breast): 13.7 µM; TGI (MDA-MB-231 breast): 26.7 µM; GI50 (SN12C renal): 14 µM; TGI (SN12C renal): 27.1 µM; GI50 (NCI/ADR-RES ovarian): 9.91 µM; TGI (NCI/ADR-RES ovarian): 21.9 µM; GI50 (HCT-15 colon): 11.4 µM; TGI (HCT-15 colon): 23.9 µM; GI50 (SNB-75 CNS): 2.73 µM; TGI (SNB-75 CNS): 8.45 µM; GI50 (SNB-19 CNS): 15.9 µM; TGI (SNB-19 CNS): 30.5 µM; GI50 (CCRF-CEM leukemia): 6.19 µM; TGI (CCRF-CEM leukemia): 17.9 µM; GI50 (OVCAR-4 ovarian): 9.12 µM; TGI (OVCAR-4 ovarian): 22.2 µM; GI50 (U251 glioblastoma): 14.2 µM; TGI (U251 glioblastoma): 27.5 µM; GI50 (SF-295 CNS): 11.3 µM; TGI (SF-295 CNS): 23.7 µM; GI50 ([…]-0 renal): 3.7 µM; TGI (786-0 renal): 10.7 µM; GI50 (T-47D breast): 4.85 µM; TGI (T-47D breast): 16.1 µM; GI50 (CAKI-1 renal): 14.7 µM; TGI (CAKI-1 renal): 28.8 µM; GI50 (A498 renal): 7.91 µM; TGI (A498 renal): 19.1 µM; GI50 (BT-549 breast): 12.2 µM; TGI (BT-549 breast): 25.5 µM; GI50 (K-562 leukemia): 5.09 µM; TGI (K-562 leukemia): 17.2 µM; GI50 (HOP-62 NSCLC): 12.2 µM; TGI (HOP-62 NSCLC): 25.5 µM; GI50 (OVCAR-8 ovarian): 10.3 µM; TGI (OVCAR-8 ovarian): 23.1 µM; GI50 (MCF7 breast): 12.5 µM; TGI (MCF7 breast): 25.3 µM; GI50 (HOP-92 NSCLC): 8.41 µM; TGI (HOP-92 NSCLC): 21.3 µM; GI50 (TK-10 renal): 14.4 µM; TGI (TK-10 renal): 28.6 µM; GI50 (ACHN renal): 14.1 µM; TGI (ACHN renal): 30.7 µM; GI50 (HCC-2998 colon): 13.8 µM; TGI (HCC-2998 colon): 26.9 µM; GI50 (M14 melanoma): 13.3 µM; TGI (M14 melanoma): 26.2 µM; GI50 (IGROV1 ovarian): 13.5 µM; TGI (IGROV1 ovarian): 27.8 µM; GI50 (COLO 205 colon): 14.9 µM; TGI (COLO 205 colon): 28.4 µM; GI50 (NCI-H226 lung): 5.32 µM; TGI (NCI-H226 lung): 16.3 µM; GI50 (UACC-257 melanoma): 12.4 µM; TGI (UACC-257 melanoma): 25.9 µM; GI50 (UACC-62 melanoma): 12.5 µM; TGI (UACC-62 melanoma): 25.3 µM; GI50 (SK-MEL-5 melanoma): 6.22 µM; TGI (SK-MEL-5 melanoma): 18.3 µM; GI50 (PC-3 prostate): 12.7 µM; TGI (PC-3 prostate): 25.7 µM; GI50 (OVCAR-3 ovarian): 15.7 µM; TGI (OVCAR-3 ovarian): 29.8 µM; GI50 (MALME-3M melanoma): 8.2 µM; TGI (MALME-3M melanoma): 17.4 µM; GI50 (UO-31 renal): 11.6 µM; TGI (UO-31 renal): 23.9 µM; GI50 (RPMI-8226 leukemia): 6.96 µM; TGI (RPMI-8226 leukemia): 19.1 µM; GI50 (KM12 colon): 4.46 µM; TGI (KM12 colon): 14.2 µM; GI50 (A549 NSCLC): 13.1 µM; TGI (A549 NSCLC): 26.2 µM; GI50 (DU-145 prostate): 15.4 µM; TGI (DU-145 prostate): 29.1 µM; GI50 (SK-MEL-2 melanoma): 7.92 µM; TGI (SK-MEL-2 melanoma): 20.4 µM; GI50 (HCT-116 colon): 12.8 µM; TGI (HCT-116 colon): 25.9 µM; GI50 (NCI-H522 lung): 8.58 µM; TGI (NCI-H522 lung): 21 µM; GI50 (EKVX NSCLC): 10.7 µM; TGI (EKVX NSCLC): 23.7 µM; GI50 (OVCAR-5 ovarian): 15.7 µM; TGI (OVCAR-5 ovarian): 29.6 µM; GI50 (MDA-MB-435 melanoma): 16.2 µM; TGI (MDA-MB-435 melanoma): 30.1 µM; GI50 (RXF 393 renal): 4.54 µM; TGI (RXF 393 renal): 14.7 µM
